In PMC3925085, “Subditine, a New Monoterpenoid Indole Alkaloid from Bark of Nauclea subdita (Korth.) Steud. Induces Apoptosis in Human Prostate Cancer Cells” (PLoS ONE, 2014):

Tests used:
Format in all cases: cell-based, human
caspase-8 in PC-3 cells = test: Caspase-Glo 8 bioluminescent assay, PC-3; conditions: PC-3, 12.5 µM, throughout 30 hours
Procedure: (§1) A time-dependent study of caspase-3/7, -8, and -9 activities was performed in triplicates using assay kits Caspase-Glo 3/7, 8, and 9 (Promega Corp.,Madison,WI, USA) on white 96-well microplate as described previously. A total of 10,000 cells per well was seeded and treated with […] of subditine (1) for 6, 12, 18, 24, and 30 hours. Then, 100 µL of the caspase-Glo reagent was added, incubated at room temperature for 30 minutes and measured using Tecan Infinite 200 Pro (Tecan, Mannedorf, Swizerland) microplate reader.

[1] = tested on: glutathione reductase (GR) gene expression in PC-3 cells; test: Oxidative stress and antioxidant defense qPCR-array, PC-3; conditions: PC-3, 12.5 µM, 18 h, relative to control cells
Procedure: LNCaP and PC-3 cells were treated with subditine (1) (12.5 µM) for 18 h. RNA was extracted from PC-3 or LNCaP cells using RNeasy plus mini kit (Qiagen). 1 µg of RNA was reverse transcribed into cDNA using the RT2 first strand kit (SA Biosciences, Qiagen).cDNA was mixed with RT2 Real Time™ SYBR Green/fluorescein PCR master-mix and loaded into each 96 wells of the Human Oxidative Stress and Antioxidant Defense qPCR array according to the manufacturer’s protocol (SA Biosciences, Qiagen). Briefly, a total volume of 25 µl of PCR mixture, which included 12.5 µl of mastermix, 11.5 µl of double distilled water, and 1 µl of cDNA was loaded into each of the 96wells. qPCR were done using StepOne PLUS real-time PCR machine (Applied Biosystems). PCR amplification was conducted at 95°C for 10 min, followed by 40 cycles of 95°C for 15 sec and 60°C for 1 min. The mRNA expression for each gene was normalized using the average expression of five housekeeping genes:
β-actin (ACTB), β-2-microglobulin (β2M), hypoxanthine phosphoribosyltransferase 1 (HPRT1), ribosomal protein L13a (RPL13A) and glyceraldehyde-3-phosphate dehydrogenase (GAPDH). The ΔΔCt method was used for data analysis. Fold changes were calculated for each gene as the difference in gene expression between subditine (1) or non-treated control using the RT Profiler qPCR-array data analysis software.

[2] = tested on: caspase-3/7 in LNCaP cells; test: Caspase-Glo 3/7 bioluminescent assay, LNCaP
Procedure: as §1

[3] = tested on: intracellular ROS in PC-3 cells; test: ROS assay (DHE dye, Cellomics HCS), PC-3; conditions: PC-3, 12.5, 25, 50 µM, 24 h
Procedure: The production of intracellular ROS was detected as described previously. The DHE dye reagent is converted to fluorescent ethidium and intercalates into DNA in response intracellular ROS. Briefly, 10 mM DHE stock solution (in methanol) was diluted 500-fold in HBSS without serum or other additives to yield a 20 µM working solution. After exposure to subditine (1), the cells in the 96-well black plate was washed twice with HBSS and then incubated in 100 µL working solution of DHE at 37°C for 30 minutes. Fluorescence of DCF in each cell was captured, extracted and analyzed with ArrayScan II Data Acquisition and Data Viewer version 3.0 (Cellomics).

LNCaP cells = test: Hoechst 33342 / phalloidin staining, LNCaP; conditions: 24 hours
Procedure: Cytoskeletal and nuclear morphological changes of LNCaP and PC-3 cells were examined by phalloidin (detects F-actin) and Hoechst 33342 staining. […] At concentration 12.5 µM and 25 µM, nuclear condensation and fragmentation were detected at 24 hours after subditine (1) treatment (Figure 4).
Figure 3 Subditine (1) induced cytoskeletal rearrangement at the peripheral. LNCaP and PC-3 cells were treated with subditine (1) at various concentrations for 24 hours. Cells were fixed and stained with Hoechst (blue) and phalloidin (red) dye which stained nucleus and polymerized actin (F-actin), respectively. Bar chart showing average fluorescent intensity of phalloidin (mean ± S.D.; *p<0.05).
Figure 4 Subditine (1) treatment leads to nuclear DNA fragmentation. LNCaP and PC-3 cells were treated with subditine (1) (12.5 µM and 25 µM) for 24 h. Cells were then fixed and stained with Hoescht 33342 (blue). Red circles indicate DNA shrinkage or fragmentation. Images were captured using Cellomic arrayscan system.

## Cc1ncc2c(=O)n3c(cc2c1C=O)-c1[nH]c2ccccc2c1CC3 [Subditine, subditine]
caspase-8 in PC-3 cells
  caspase 8 activity: No significant fold-change
[1]
  glutathione reductase (GR) gene expression fold change: > 20 fold
[2]; after 12 and 24 hours exposure, 12.25 µM
  caspase-3/7 activity: significant increase
[2]; time points 6-30 hours
  time of peak caspase-3/7 activity: 18 h
[3]
  ROS production (DCF/DHE fluorescence level): significantly increased in a dose-dependent manner
LNCaP cells; 12.5 µM and 25 µM, P<0.05
  nuclear intensity (apoptotic chromatin changes): significantly increased
LNCaP cells; various concentrations
  phalloidin (F-actin) intensity: Dose-dependent increased
